Experiment [1] concerns SH-SY5Y cells. As to the kind of experiment: sAPPβ release assay. Particulars: read-out: IC50 Cell (sAPPβ release); SH-SY5Y cells, compounds incubated 16-17 h.
Experimental: Cells were thawed and seeded at a concentration of around 10000 cells/well in DMEM/F-12 with Glutamax, 10% FCS and 1% non-essential amino acids to a 384-well tissue culture treated plate, 30 μL cell susp/well. The cell plates were then incubated for 7-24 h at 37° C., 5% CO2.
The cell medium was removed, followed by addition of 50 μL compound diluted in DMEM/F-12 with Glutamax, 10% FCS, 1% non-essential amino acids to a final cone of 0.5% DMSO. The compounds were incubated with the cells for 16-17 h (overnight) at 37° C., 5% CO2.
Meso Scale Discovery (MSD) plates were used for the detection of sAPP release. MSD sAPPβ plates were blocked in 1% BSA in Tris wash buffer for 1 h on shake at r.t. and washed 1 time in Tris wash buffer. […] The MSD plates were incubated with shaking at r.t. for 2 h and the media discarded. 10 μL detection antibody was added (1 nM) per well followed by incubation with shaking at r.t. for 2 h and then discarded. 35 μL Read Buffer was added per well and the plates were read in a Meso Scale Discovery SECTOR6000 Imager.
Experiment [2] has as its target T1, Human BACE2 (Homo sapiens, UniProt Q9Y5Z0).
T1 construct: the soluble part of the human β-Secretase2 (AA1-AA473) was cloned using BACE2(1-473)-(AVT)-Fc-pDEST12.2 mammalian expression vector; AVT linker (C); made in house
T1 sequence (Q9Y5Z0 21-473): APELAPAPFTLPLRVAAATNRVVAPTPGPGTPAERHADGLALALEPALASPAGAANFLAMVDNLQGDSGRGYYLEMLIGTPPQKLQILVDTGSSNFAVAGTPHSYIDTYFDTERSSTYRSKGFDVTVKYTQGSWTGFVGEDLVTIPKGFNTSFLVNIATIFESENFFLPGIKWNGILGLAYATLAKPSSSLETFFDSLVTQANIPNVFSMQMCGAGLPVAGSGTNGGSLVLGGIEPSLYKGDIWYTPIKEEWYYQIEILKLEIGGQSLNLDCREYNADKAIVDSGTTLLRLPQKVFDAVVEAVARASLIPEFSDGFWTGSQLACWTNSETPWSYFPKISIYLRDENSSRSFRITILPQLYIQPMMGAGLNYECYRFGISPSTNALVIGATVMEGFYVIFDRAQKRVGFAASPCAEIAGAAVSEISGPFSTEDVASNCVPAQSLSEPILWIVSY
The experiment is described as follows: TR-FRET assay. Format: biochemical. Conditions: enzyme […], substrate 100 nM, pH4.5.

The target in experiment [3] is T2, Human BACE1 (Homo sapiens, UniProt P56817).
T2 construct: the soluble part of the human β-Secretase1 (AA1-AA460) was cloned using the BACE1(1-460)-(AVT)-Fc-pGEN-IRES-neo mammalian expression vector; AVT linker (C); made in house
The experiment is described as follows: Diluted TR-FRET assay. Format: biochemical. Conditions: 50 times less enzyme, 6.5 h reaction time at r.t.; read-out: IC50 BACE1 (dil. TR-FRET). The essentials:
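Human BACE1 (residues 1-460) was fused to an IgG1 Fc affinity tag and stably expressed in HEK 293 cells. Using a Multidrop Combi, 7 μL enzyme was added to 0.8 μL compound in dimethylsulphoxide and incubated 10 minutes. Reactions were stopped with 5.5 μL NaOAC Stop solution (pH 9), and TR-FRET fluorescence was read on a Pherastar HTRF module.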

T2 sequence (P56817 22-460): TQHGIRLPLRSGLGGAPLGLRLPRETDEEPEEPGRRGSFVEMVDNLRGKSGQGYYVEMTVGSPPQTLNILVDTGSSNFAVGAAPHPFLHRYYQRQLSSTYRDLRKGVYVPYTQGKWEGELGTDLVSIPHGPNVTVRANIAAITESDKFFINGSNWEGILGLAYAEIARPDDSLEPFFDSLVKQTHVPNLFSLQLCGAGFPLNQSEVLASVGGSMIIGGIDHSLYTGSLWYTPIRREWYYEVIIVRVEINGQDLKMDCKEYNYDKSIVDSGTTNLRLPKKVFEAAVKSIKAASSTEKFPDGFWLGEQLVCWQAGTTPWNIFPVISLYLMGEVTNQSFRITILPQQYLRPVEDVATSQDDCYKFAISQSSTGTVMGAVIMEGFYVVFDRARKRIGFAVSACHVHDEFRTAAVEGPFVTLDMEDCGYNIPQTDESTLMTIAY

As a reminder, the IC50 is the concentration that gives 50% inhibition. In the case of “(1′R,4′S)-4′-methoxy-6″-(pyridin-3-yl)-3″H,5′″H-trispiro[cyclopropane-1,3′-cyclohexane-1′,2″-indene-1″,4′″-oxazol]-5′″,5′″-d2-2′″-amine and (1′S,4′R)-4′-methoxy-6″-(pyridin-3-yl)-3″H,5′″H-trispiro[cyclopropane-1,3′-cyclohexane-1′,2″-indene-1″,4′″-oxazol]-5′″,5′″-d2-2′″-amine [Compound 87]”, the results for the IC50 in experiment [1], in experiment [2] and in experiment [3] were 4.7 nM, 3480 nM and 262 nM, respectively.

As for “(1′R,4′S)-4′-methoxy-6″-(pyrimidin-5-yl)-3″H,5′″H-trispiro[cyclopropane-1,3′-cyclohexane-1′,2″-indene-1″,4′″-oxazol]-5′″,5′″-d2-2′″-amine and (1′S,4′R)-4′-methoxy-6″-(pyrimidin-5-yl)-3″H,5′″H-trispiro[cyclopropane-1,3′-cyclohexane-1′,2″-indene-1″,4′″-oxazol]-5′″,5′″-d2-2′″-amine [Compound 86]”, the IC50 was determined as 5.9 nM in experiment [1], 4750 nM in experiment [2] and 144 nM in experiment [3].

Source of the values: patent publication US10053453B2, “Compounds and their use as BACE inhibitors” (AstraZeneca AB, priority 2014, dated 2018).
